Results reported in ChEMBL document CHEMBL1671854, “ramR mutations involved in efflux-mediated multidrug resistance in Salmonella enterica serovar Typhimurium” (2008).
Converted amounts (≈) assume the structure as drawn.

Legend:
Assay type in all cases: functional, Salmonella enterica subsp. enterica serovar Typhimurium
[1] = tested on: Salmonella typhimurium; experiment: Antimicrobial activity against Salmonella enterica serovar Typhimurium BN18/21 by agar doubling dilution method
[2] = tested on: Salmonella typhimurium; experiment: Antimicrobial activity against Salmonella enterica serovar Typhimurium BN18/21 harboring plasmid encoded RamR gene by agar doubling dilution method
[3] = tested on: Salmonella typhimurium; experiment: Antimicrobial activity against multidrug-resistant Salmonella enterica serovar Typhimurium BN9181 by agar doubling dilution method
[4] = tested on: Salmonella typhimurium; experiment: Antimicrobial activity against ramA::kan-deficient Salmonella enterica serovar Typhimurium 902SA92 harboring GyrA S83A and D87N, GyrB S464F and ParC S80I mutant genes by agar doubling dilution method
[5] = tested on: Salmonella typhimurium; experiment: Antimicrobial activity against multidrug-resistant Salmonella enterica serovar Typhimurium 902SA92 harboring plasmid encoded RamR gene, GyrA S83A and D87N, GyrB S464F and ParC S80I mutant genes by agar doubling dilution method
[6] = tested on: Salmonella typhimurium; experiment: Antimicrobial activity against multidrug-resistant Salmonella enterica serovar Typhimurium BN10055 harboring GyrA S83Y mutant gene by agar doubling dilution method
[7] = tested on: Salmonella typhimurium; experiment: Antimicrobial activity against Salmonella enterica serovar Typhimurium BN18 harboring plasmid encoded RamR gene by agar doubling dilution method
[8] = tested on: Salmonella typhimurium; experiment: Antimicrobial activity against multidrug-resistant Salmonella enterica serovar Typhimurium 102SA00 harboring GyrA S83A and D87N, GyrB S464F and ParC S80I mutant genes by agar doubling dilution method
[9] = tested on: Salmonella typhimurium; experiment: Antimicrobial activity against multidrug-resistant Salmonella enterica serovar Typhimurium 543SA98 harboring plasmid encoded RamR gene, GyrA S83Y mutant gene by agar doubling dilution method
[10] = tested on: Salmonella typhimurium; experiment: Antimicrobial activity against ramA::kan-deficient Salmonella enterica serovar Typhimurium BN9945 by agar doubling dilution method
[11] = tested on: Salmonella typhimurium; experiment: Antimicrobial activity against Salmonella enterica serovar Typhimurium BN18/41 harboring plasmid encoded RamR gene, GyrA G81C,acrR mutant genes by agar doubling dilution method
[12] = tested on: Salmonella typhimurium; experiment: Antimicrobial activity against multidrug-resistant Salmonella enterica serovar Typhimurium 543SA98 harboring GyrA […] mutant gene by agar doubling dilution method
[13] = tested on: Salmonella typhimurium; experiment: Antimicrobial activity against marR::kan-deficient Salmonella enterica serovar Typhimurium S/921495 by agar doubling dilution method
[14] = tested on: Salmonella typhimurium; experiment: Antimicrobial activity against ramA::kan-deficient Salmonella enterica serovar Typhimurium BN18/21 by agar doubling dilution method
[15] = tested on: Salmonella typhimurium; experiment: Antimicrobial activity against multidrug-resistant Salmonella enterica serovar Typhimurium BN9181 harboring plasmid encoded RamR gene by agar doubling dilution method
[16] = tested on: Salmonella typhimurium; experiment: Antimicrobial activity against ramA::kan-deficient Salmonella enterica serovar Typhimurium BN18/71 harboring plasmid encoded RamR gene, GyrA G81C,acrR mutant genes by agar doubling dilution method
[17] = tested on: Salmonella typhimurium; experiment: Antimicrobial activity against multidrug-resistant Salmonella enterica serovar Typhimurium 102SA00 harboring plasmid encoded RamR gene, GyrA S83A and D87N, GyrB S464F and ParC S80I mutant genes by agar doubling dilution method
[18] = tested on: Salmonella typhimurium; experiment: Antimicrobial activity against Salmonella enterica serovar Typhimurium BN18/71 harboring plasmid encoded RamR gene, GyrA G81C,acrR mutant genes by agar doubling dilution method
[19] = tested on: Salmonella typhimurium; experiment: Antimicrobial activity against ramA::kan-deficient Salmonella enterica serovar Typhimurium S/921495 by agar doubling dilution method
[20] = tested on: Salmonella typhimurium; experiment: Antimicrobial activity against ramA::kan-deficient Salmonella enterica serovar Typhimurium BN18/41 harboring plasmid encoded RamR gene, GyrA G81C,acrR mutant genes by agar doubling dilution method
[21] = tested on: Salmonella typhimurium; experiment: Antimicrobial activity against ramA::kan-deficient Salmonella enterica serovar Typhimurium 102SA00 harboring GyrA S83A and D87N, GyrB S464F and ParC S80I mutant genes by agar doubling dilution method
[22] = tested on: Salmonella typhimurium; experiment: Antimicrobial activity against multidrug-resistant Salmonella enterica serovar Typhimurium BN10055 harboring plasmid encoded RamR gene, GyrA S83Y mutant gene by agar doubling dilution method
[23] = tested on: Salmonella typhimurium; experiment: Antimicrobial activity against soxS::kan-deficient Salmonella enterica serovar Typhimurium S/921495 by agar doubling dilution method
[24] = tested on: Salmonella typhimurium; experiment: Antimicrobial activity against marR-deficient Salmonella enterica serovar Typhimurium S/921495 by agar doubling dilution method
[25] = tested on: Salmonella typhimurium; experiment: Antimicrobial activity against ramA::kan-deficient Salmonella enterica serovar Typhimurium BN10055 harboring GyrA S83Y mutant gene by agar doubling dilution method
[26] = tested on: Salmonella typhimurium; experiment: Antimicrobial activity against ramR::kan-deficient Salmonella enterica serovar Typhimurium S/921495 by agar doubling dilution method
[27] = tested on: Salmonella typhimurium; experiment: Antimicrobial activity against ramA::kan-deficient Salmonella enterica serovar Typhimurium BN9181 by agar doubling dilution method
[28] = tested on: Salmonella typhimurium; experiment: Antimicrobial activity against Salmonella enterica serovar Typhimurium S/921495 by agar doubling dilution method
[29] = tested on: Salmonella typhimurium; experiment: Antimicrobial activity against multidrug-resistant Salmonella enterica serovar Typhimurium BN9945 harboring plasmid encoded RamR gene by agar doubling dilution method
[30] = tested on: Salmonella typhimurium; experiment: Antimicrobial activity against ramA::kan-deficient Salmonella enterica serovar Typhimurium 543SA98 harboring GyrA S83Y mutant gene by agar doubling dilution method
[31] = tested on: Salmonella typhimurium; experiment: Antimicrobial activity against multidrug-resistant Salmonella enterica serovar Typhimurium 902SA92 harboring GyrA S83A and D87N, GyrB S464F and ParC S80I mutant genes by agar doubling dilution method
[32] = tested on: Salmonella typhimurium; experiment: Antimicrobial activity against ramA::kan-deficient Salmonella enterica serovar Typhimurium BN18 by agar doubling dilution method
[33] = tested on: Salmonella typhimurium; experiment: Antimicrobial activity against soxR::kan-deficient Salmonella enterica serovar Typhimurium S/921495 by agar doubling dilution method
[34] = tested on: Salmonella typhimurium; experiment: Antimicrobial activity against Salmonella enterica serovar Typhimurium BN18/71 harboring GyrA G81C, acrR mutant genes by agar doubling dilution method
[35] = tested on: Salmonella typhimurium; experiment: Antimicrobial activity against Salmonella enterica serovar Typhimurium BN18/41 harboring GyrA G81C,acrR mutant genes by agar doubling dilution method
[36] = tested on: Salmonella typhimurium; experiment: Antimicrobial activity against Salmonella enterica serovar Typhimurium BN18 by agar doubling dilution method
[37] = tested on: Salmonella typhimurium; experiment: Antimicrobial activity against ramR-deficient Salmonella enterica serovar Typhimurium S/921495 by agar doubling dilution method
[38] = tested on: Salmonella typhimurium; experiment: Antimicrobial activity against ramR-deficient Salmonella enterica serovar Typhimurium S/921495 harboring plasmid encoded RamR gene by agar doubling dilution method
[39] = tested on: Salmonella typhimurium; experiment: Antimicrobial activity against multidrug-resistant Salmonella enterica serovar Typhimurium BN9945 by agar doubling dilution method
[40] = tested on: Salmonella typhimurium; experiment: Antimicrobial activity against Salmonella enterica serovar Typhimurium S/921495 harboring plasmid encoded RamR gene by agar doubling dilution method
[41] = tested on: Salmonella typhimurium; experiment: Antimicrobial activity against marA::kan-deficient Salmonella enterica serovar Typhimurium S/921495 by agar doubling dilution method

CC1CCc2cc(F)cc3c(=O)c(C(=O)O)cn1c23 (configuration not stated) [FLUMEQUINE]
MIC [1]: 8 µg/mL (≈ 30.6 µM)
MIC [2]: 2 µg/mL (≈ 7.66 µM)
MIC [3]: 0.5 µg/mL (≈ 1.91 µM)
MIC [4]: 512 µg/mL (≈ 1960 µM)
MIC [5]: 512 µg/mL (≈ 1960 µM)
MIC [6]: 64 µg/mL (≈ 245 µM)
MIC [7]: 0.5 µg/mL (≈ 1.91 µM)
MIC [8]: 2050 µg/mL (≈ 7840 µM)
MIC [9]: 8 µg/mL (≈ 30.6 µM)
MIC [10]: 8 µg/mL (≈ 30.6 µM)
MIC [11]: 64 µg/mL (≈ 245 µM)
MIC [12]: 32 µg/mL (≈ 122 µM)
MIC [13]: 0.5 µg/mL (≈ 1.91 µM)
MIC [14]: 2 µg/mL (≈ 7.66 µM)
MIC [15]: 0.5 µg/mL (≈ 1.91 µM)
MIC [16]: 256 µg/mL (≈ 980 µM)
MIC [17]: 512 µg/mL (≈ 1960 µM)
MIC [18]: 256 µg/mL (≈ 980 µM)
MIC [19]: 0.5 µg/mL (≈ 1.91 µM)
MIC [20]: 64 µg/mL (≈ 245 µM)
MIC [21]: 512 µg/mL (≈ 1960 µM)
MIC [22]: 64 µg/mL (≈ 245 µM)
MIC [23]: 0.5 µg/mL (≈ 1.91 µM)
MIC [24]: 0.5 µg/mL (≈ 1.91 µM)
MIC [25]: 16 µg/mL (≈ 61.2 µM)
MIC [26]: 2 µg/mL (≈ 7.66 µM)
MIC [27]: 0.5 µg/mL (≈ 1.91 µM)
MIC [28]: 0.5 µg/mL (≈ 1.91 µM)
MIC [29]: 8 µg/mL (≈ 30.6 µM)
MIC [30]: 8 µg/mL (≈ 30.6 µM)
MIC [31]: 2050 µg/mL (≈ 7840 µM)
MIC [32]: 0.5 µg/mL (≈ 1.91 µM)
MIC [33]: 0.5 µg/mL (≈ 1.91 µM)
MIC [34]: 512 µg/mL (≈ 1960 µM)
MIC [35]: 256 µg/mL (≈ 980 µM)
MIC [36]: 0.5 µg/mL (≈ 1.91 µM)
MIC [37]: 2 µg/mL (≈ 7.66 µM)
MIC [38]: 0.5 µg/mL (≈ 1.91 µM)
MIC [39]: 32 µg/mL (≈ 122 µM)
MIC [40]: 0.5 µg/mL (≈ 1.91 µM)
MIC [41]: 0.5 µg/mL (≈ 1.91 µM)

O=C(O)c1cn(C2CC2)c2cc(N3CCNCC3)c(F)cc2c1=O [CIPROFLOXACIN]
MIC [1]: 0.125 µg/mL (≈ 0.377 µM)
MIC [2]: 0.06 µg/mL (≈ 0.181 µM)
MIC [3]: 0.015 µg/mL (≈ 0.0453 µM)
MIC [4]: 8 µg/mL (≈ 24.1 µM)
MIC [5]: 8 µg/mL (≈ 24.1 µM)
MIC [6]: 1 µg/mL (≈ 3.02 µM)
MIC [7]: 0.015 µg/mL (≈ 0.0453 µM)
MIC [8]: 32 µg/mL (≈ 96.6 µM)
MIC [9]: 0.125 µg/mL (≈ 0.377 µM)
MIC [10]: 0.125 µg/mL (≈ 0.377 µM)
MIC [11]: 0.5 µg/mL (≈ 1.51 µM)
MIC [12]: 0.5 µg/mL (≈ 1.51 µM)
MIC [13]: 0.015 µg/mL (≈ 0.0453 µM)
MIC [14]: 0.06 µg/mL (≈ 0.181 µM)
MIC [15]: 0.015 µg/mL (≈ 0.0453 µM)
MIC [16]: 2 µg/mL (≈ 6.04 µM)
MIC [17]: 8 µg/mL (≈ 24.1 µM)
MIC [18]: 2 µg/mL (≈ 6.04 µM)
MIC [19]: 0.015 µg/mL (≈ 0.0453 µM)
MIC [20]: 0.5 µg/mL (≈ 1.51 µM)
MIC [21]: 8 µg/mL (≈ 24.1 µM)
MIC [22]: 1 µg/mL (≈ 3.02 µM)
MIC [23]: 0.015 µg/mL (≈ 0.0453 µM)
MIC [24]: 0.015 µg/mL (≈ 0.0453 µM)
MIC [25]: 0.25 µg/mL (≈ 0.754 µM)
MIC [26]: 0.06 µg/mL (≈ 0.181 µM)
MIC [27]: 0.0075 µg/mL (≈ 0.0226 µM)
MIC [28]: 0.015 µg/mL (≈ 0.0453 µM)
MIC [29]: 0.125 µg/mL (≈ 0.377 µM)
MIC [30]: 0.125 µg/mL (≈ 0.377 µM)
MIC [31]: 32 µg/mL (≈ 96.6 µM)
MIC [32]: 0.015 µg/mL (≈ 0.0453 µM)
MIC [33]: 0.015 µg/mL (≈ 0.0453 µM)
MIC [34]: 8 µg/mL (≈ 24.1 µM)
MIC [35]: 2 µg/mL (≈ 6.04 µM)
MIC [36]: 0.015 µg/mL (≈ 0.0453 µM)
MIC [37]: 0.06 µg/mL (≈ 0.181 µM)
MIC [38]: 0.015 µg/mL (≈ 0.0453 µM)
MIC [39]: 0.5 µg/mL (≈ 1.51 µM)
MIC [40]: 0.015 µg/mL (≈ 0.0453 µM)
MIC [41]: 0.015 µg/mL (≈ 0.0453 µM)
